Source: US8431530B2, “Compositions and methods for treating aids or cancer by inhibiting the secretion of microparticles” (priority 2009, dated 2013)

Key:
[1] = tested on: HIV-1 Nef-GFP secretion, cell line H; assay: HIV-1 Nef-GFP induced secretion, fluorescent plate reader assay; type: cell-based; settings: for SMRmt/SMRwt ratio of secretion: HIV-1 Nef-GFP; for Increase in Secretion (relative to untransfected cells), exp condition/UT: HIV-1 Nef-GFP (sM1 column head prints GFP/sM1)
pNL4-3 in Jurkat cells = assay: p24 assay of virion production after pNL4-3 co-transfection; type: cell-based, HIV; settings: for amount of virus production (in words, Table I): 96 hours, pNL4-3 co-transfection; for p24 / Effect (a/b): Jurkat; for p24: co-transfected with pNL4-3; for Effect (a/b): p24 of sample / p24 of pNL4-3 + sM1
Method: I. Jurkat cells were co-transfected as shown below: (transfection efficiency 30-40% by Chariot Kit):
pNL4-3 is a clone containing the viral genome. Transfection into cells allows expression of the viral genome and ultimately virion formation and release. The amount of virion production in the extracellular supernatant is measured through p24 protein (viral protein). Samples were collected at 48 hours and 96 hours post-infection.
At 48 hr postinfection two plates in each group were removed and analyzed by: • a. p24 assay • b. Nef assay • c. Infectivity assay • At 96 hr postinfection the other two plates in each group were removed and analyzed by: • a. p24 assay • b. Nef assay • c. Infectivity assay

[2] = tested on: Gag-GFP + HIV-1wtNef-RFP secretion, THP-1 Monocyte; assay: Gag-GFP secretion in presence of wtNef-RFP, fluorescent plate reader assay; type: cell-based; settings: Gag-GFP + HIV-1wtNef-RFP + peptide, 48 hours
Method: Cells were transfected with the pQBI-HIV Gag-GFP construct, wtNef-RFP, and either the antagonist (SMRwt peptide), the negative control SMRmt peptide, or a random peptide sM1 with Chariot for 48 hours. The conditioned supernatants from these cultures were assayed for GFP fluorescence by plate reader.

R7 in Jurkat cells = assay: p24 ELISA of supernatant after R7 co-transfection; type: cell-based, HIV
Method: Jurkat cells, HEK293 cells, THP-1 monocytes and U937 monocytes were co-transfected with either R7 […] Nef SMR wt (antagonist) or with R7+Nef SMR mt (nonfunctional antagonist) by Chariot™ Kit. The transfection efficiency was 30-40%.
R7 is a clone containing the viral genome. Transfection into cells allows expression of the viral genome and ultimately virion formation and release. The amount of virion production in the extracellular supernatant is measured through p24 protein (viral protein).
At 2 hours, 3 days, 6 days, 9 days, 13 days, 15 days, 17 days, 20 days, 23 days, 27 days and 36 days post-transfection, 0.5 ml supernatant were collected from each plate, mixed with 0.5 ml fresh media and analyzed by p24 ELISA assay. 1.5 ml of supernatant were collected from each plate and spun in a TLA100 rotor at 400,000×g for 1 hour to create the pellets. The pellets were used for Western blot analysis with p24 mAb and Nef mAb.

MDA-MB-231 cells = assay: Exosome (AChE marker) secretion from tumor cells, immunoblot; type: cell-based, human; settings: MDA-MB-231, Chariot transfection, 48 hr, immunoblot densitometry normalized to tubulin; dose dependency in both compartments
Text: FIG. 1 is a composite of diagrams showing the synthetic HIV-1 NefSMRwt peptide (antagonist) and HIV-1 NefSMRmt peptide (negative control) (panel A); the vector constructs expressing HIV-1 NefSMRwt peptide fused with GFP or HIV-1 NefSMRmt peptide fused with GFP (panel B); and the amount of acetylcholinesterase, a marker for exosomes, in MDA-MB-231 cells transfected with either HIV-1 NefSMRwt peptide (panelC) or SMRmt peptide (panel D). Untransfected MDA-MB-231 cells were used as negative controls. The cells were cultured for 48 hours in serum-free medium. One ml of supernatant was spun at 400,000×g. Supernatant pellets or set volume of cell lysate were run on PAGE, blotted, and probed with anti-AchE mAb (Acetylcholinesterase—1:1000 dilution; marker for exosomes). The cell lyasates were reprobed with anti-Tubulin mAb (1:4000). Bands were measured by densitometry, normalized against intracellular tubulin. Data shown here as percent relative to the untransfected control.
MDA-MB-231 cells were derived from human breast adenocarcinoma and […], and were obtained from the American Type Culture Collection (Manassas, Va.). […]
Pellets were resuspended in 1×SDS-PAGE loading buffer, separated by SDS-PAGE. […] Protein bands were detected by Western Blotting Luminol Reagent (Santa Cruz Biotechnology, Inc., Santa Cruz, Calif.). […]

Substance	SMRmt/SMRwt ratio of secretion [1] [y]	Increase in Secretion (relative to untransfected cells), exp condition/UT [1] [x]	amount of virus production (in words, Table I) (pNL4-3 in Jurkat cells)	p24 (pNL4-3 in Jurkat cells; 48 hr) [pg/mL]	Effect (a/b) (pNL4-3 in Jurkat cells; 48 hr)	p24 (pNL4-3 in Jurkat cells; 96 hr) [pg/mL]	Effect (a/b) (pNL4-3 in Jurkat cells; 96 hr)	Secretion relative to untransfected cells ([2]; first line) [x]	Secretion relative to untransfected cells ([2]; second line (not explained)) [x]	time post transfection at which p24 concentration increased (R7 in Jurkat cells) [days]	AChE (exosome marker) intracellularly and in the cell supernatant (MDA-MB-231 cells)
H2N-AGFPVAAAGFPVDYKDDDDK-OH (H-AGFPVAAAGFPVDYKDDDDK-OH) [SMRmt]	24.8	57.04	no effect	0	1	15	0.5	49.27	22.24	3	no effect
H-VGFPVAAVGFPVDYKDDDDK-OH [SMRwt]	1.0	2.3	reduced drastically	0	1	0	<0.033	0.95	0.91	13	knocked down AChE intracellularly and in the cell supernatant
